Values of other authors as cited in patent publication US20150283148A1, “ARRANGEMENT OF SPECIFIC ANTIDOTES WITH ALLOPATHIC MEDICINAL PREPARATIONS IN GENERAL SECONDARY PACKAGE” (priority 2014, published 2015).

Settings: predicted by algorithm

NS(=O)(=O)Cc1noc2ccccc12 [Zonisamide]
predicted latent side effect: suicidal thoughts
